Like-named read-outs stand apart in the source and are kept apart here.
Experiments:
CDK2 = target: T1, CDK2 (Homo sapiens, UniProt P24941); test: CDK2 activity inhibition experiment (Caliper mobility shift assay); type: biochemical; conditions: enzyme activity inhibition; read-out: CDK2 IC50 class
T1 construct: purchased Carna 04-103
Description: After being incubated at 28° C. for 60 minutes, 25 μl of stop solution was added to stop the reaction. Conversion rate data was read from Caliper EZ Reader II (Caliper Life Sciences). The conversion rate data was converted into inhibition rate data. […] The curve was plotted with compound concentration and inhibition rate as horizontal and vertical coordinates, and the IC50 was calculated by fitting the curve using XLFit excel add-in version 4.3.1 software. Inhibition rate %=(max-conversion rate)/(max-min)×100.

[1] = target: T2, CDK4 (GST-CDK4(1-303end)/GST-CycD3(1-292end)) (Homo sapiens, UniProt P11802); test: CDK4 activity inhibition experiment (Caliper mobility shift assay); type: biochemical; conditions: enzyme activity inhibition; read-out: CDK4 IC50 class
T2 construct: GST-CDK4(1-303end); purchased Carna 04-105
T2 sequence (P11802 whole entry): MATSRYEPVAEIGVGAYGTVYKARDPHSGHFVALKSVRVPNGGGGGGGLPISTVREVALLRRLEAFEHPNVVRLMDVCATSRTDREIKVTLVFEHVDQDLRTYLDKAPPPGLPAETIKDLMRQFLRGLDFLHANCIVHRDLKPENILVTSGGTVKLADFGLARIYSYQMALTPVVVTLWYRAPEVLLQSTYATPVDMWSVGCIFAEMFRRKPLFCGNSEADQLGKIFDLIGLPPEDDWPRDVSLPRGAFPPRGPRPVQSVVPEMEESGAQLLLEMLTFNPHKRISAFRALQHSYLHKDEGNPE
T2 sequence (P30281 whole entry partner): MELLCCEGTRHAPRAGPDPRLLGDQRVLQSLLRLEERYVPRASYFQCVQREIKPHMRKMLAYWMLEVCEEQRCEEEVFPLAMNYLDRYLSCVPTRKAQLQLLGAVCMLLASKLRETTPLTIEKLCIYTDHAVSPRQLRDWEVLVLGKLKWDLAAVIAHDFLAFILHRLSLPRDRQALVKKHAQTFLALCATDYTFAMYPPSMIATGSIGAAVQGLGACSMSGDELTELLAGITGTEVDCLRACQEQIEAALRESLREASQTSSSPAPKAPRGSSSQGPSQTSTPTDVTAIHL

ZR-75-1 = test: Tumor cell proliferation inhibition (CellTiter-Glo), ZR-75-1; type: cell-based; conditions: Homo sapiens, 72 hours, 10% fetal bovine serum, read-out: ZR-75-1 IC50 class
Description: The content of adenosine triphosphate (ATP) was determined using the CellTiter-Glo Luminescent Cell Viability Assay Kit (Promega, Madison, Wis.) to evaluate cell viability. Tumor cell lines (SW620, ZR-75-1, MDA-MB-231) were purchased from the Cell Resource Center of IBS, Fudan University, Shanghai and the American Type Culture Collection (ATCC). The cell density was determined using Scepter automated cell counter (Millipore # PHCC00000) after the cells were digested with pancreatin in cell culture dishes and resuspended in DPBS medium. The cells were diluted to a solution of 44,000 cells per ml. The cell solution of which density was adjusted was added into the cell assay plate at 90 microliters per well. The well plate was incubated in an incubator with 5% CO2 at 37° C. for 24 hours and then added with test compounds with different concentrations. The cells were incubated with the compounds in the presence of 10% fetal bovine serum for 72 hours. ATP content was assayed using the CellTiter-Glo® Luminescent Cell Viability Assay kit (see instructions of manufacturer) to assess cell growth inhibition. Briefly, 30 μl of CellTiter-Glo® reagent was added to each well, rocked for 10 minutes to induce cell lysis, and […] were detected and recorded with Fluoroskan Ascent FL (Thermo). The maximum signal value was obtained from the cells treated with dimethyl sulfoxide for 72 hours. The minimum signal value was obtained from the separate culture medium (cell number was zero). Inhibition rate %=(maximum signal value−compound signal value)/(maximum signal value−minimum signal value)×100. Data was processed using GraphPad Prism V5.0 (GraphPad Software, San Diego, Calif.) software. IC50 values were calculated by fitting S-shaped dose-response curves.

[2] = tested on: MDA-MB-231 breast cancer cells; test: Cell cycle inhibition experiment (PI staining, flow cytometry); type: cell-based; conditions: Homo sapiens, MDA-MB-231 cells, 24 h
Text: The cell cycle and apoptosis assay kit (Beyotime, C1052) used in this experiment is an assay kit for analyzing the cell cycle and apoptosis using the classic method of Propidium staining (PI staining). Propidium (PI) is a double-stranded DNA fluorescent dye. The combination of propidium and double-stranded DNA can produce fluorescence, and fluorescence intensity is proportional to the amount of double-stranded DNA. After DNA in cells is stained with propidium, the DNA content of the cells can be measured by flow cytometry, and then the cell cycle and apoptosis can be analyzed according to the distribution of DNA content.
MDA-MB-231 cells were seeded into a 6-well plate at 3×10^5 per well and cultured for 24 hours.
In tumor cell cycle, the binding of CDK4 and CDK6 to cyclin D promotes G1 phase into S phase. CDK4/6 inhibitor selectively arrests the G1 phase of tumor cells into S phase. The detection results of the cell cycle of MDA-MB-231 breast cancer cells by flow cytometry indicate that the CDK4/6 inhibitor compounds provided by the present disclosure stop the growth of G1 phase cells and reduce S phase cells in a concentration-dependent manner, as shown in the following table.

Compound: CC(=O)c1c(C)c2cnc(Nc3ccc(C4CCN(CCS(C)(=O)=O)CC4)cn3)nc2n(C2CCCC2)c1=O [Compound 1, 6-acetyl-8-cyclopentyl-5-methyl-2-((5-(1-(2-(methylsulfonyl)ethyl)piperidin-4-yl)pyridin-2-yl)amino)pyrido[2,3-d]pyrimidin-7(8H)-one]
- IC50 (CDK2): > 500 nM
- IC50 [1]: < 10 nM
- IC50 (ZR-75-1): 100 to 500 nM
- IC50 ([2]; read-out: IC50 (nM) G1 arrest): 41.7 nM
- IC50 ([2]; read-out: IC50 (nM) S decrease): 46.1 nM
